Consider 23 molecules from patent US20250122218A1, “MODULATORS OF CYSTIC FIBROSIS TRANSMEMBRANE CONDUCTANCE REGULATOR” (Vertex Pharmaceuticals Incorporated, priority 2022, published 2025).

T1 sequence (P13569 with tags, fused parts or gaps DEL508-508): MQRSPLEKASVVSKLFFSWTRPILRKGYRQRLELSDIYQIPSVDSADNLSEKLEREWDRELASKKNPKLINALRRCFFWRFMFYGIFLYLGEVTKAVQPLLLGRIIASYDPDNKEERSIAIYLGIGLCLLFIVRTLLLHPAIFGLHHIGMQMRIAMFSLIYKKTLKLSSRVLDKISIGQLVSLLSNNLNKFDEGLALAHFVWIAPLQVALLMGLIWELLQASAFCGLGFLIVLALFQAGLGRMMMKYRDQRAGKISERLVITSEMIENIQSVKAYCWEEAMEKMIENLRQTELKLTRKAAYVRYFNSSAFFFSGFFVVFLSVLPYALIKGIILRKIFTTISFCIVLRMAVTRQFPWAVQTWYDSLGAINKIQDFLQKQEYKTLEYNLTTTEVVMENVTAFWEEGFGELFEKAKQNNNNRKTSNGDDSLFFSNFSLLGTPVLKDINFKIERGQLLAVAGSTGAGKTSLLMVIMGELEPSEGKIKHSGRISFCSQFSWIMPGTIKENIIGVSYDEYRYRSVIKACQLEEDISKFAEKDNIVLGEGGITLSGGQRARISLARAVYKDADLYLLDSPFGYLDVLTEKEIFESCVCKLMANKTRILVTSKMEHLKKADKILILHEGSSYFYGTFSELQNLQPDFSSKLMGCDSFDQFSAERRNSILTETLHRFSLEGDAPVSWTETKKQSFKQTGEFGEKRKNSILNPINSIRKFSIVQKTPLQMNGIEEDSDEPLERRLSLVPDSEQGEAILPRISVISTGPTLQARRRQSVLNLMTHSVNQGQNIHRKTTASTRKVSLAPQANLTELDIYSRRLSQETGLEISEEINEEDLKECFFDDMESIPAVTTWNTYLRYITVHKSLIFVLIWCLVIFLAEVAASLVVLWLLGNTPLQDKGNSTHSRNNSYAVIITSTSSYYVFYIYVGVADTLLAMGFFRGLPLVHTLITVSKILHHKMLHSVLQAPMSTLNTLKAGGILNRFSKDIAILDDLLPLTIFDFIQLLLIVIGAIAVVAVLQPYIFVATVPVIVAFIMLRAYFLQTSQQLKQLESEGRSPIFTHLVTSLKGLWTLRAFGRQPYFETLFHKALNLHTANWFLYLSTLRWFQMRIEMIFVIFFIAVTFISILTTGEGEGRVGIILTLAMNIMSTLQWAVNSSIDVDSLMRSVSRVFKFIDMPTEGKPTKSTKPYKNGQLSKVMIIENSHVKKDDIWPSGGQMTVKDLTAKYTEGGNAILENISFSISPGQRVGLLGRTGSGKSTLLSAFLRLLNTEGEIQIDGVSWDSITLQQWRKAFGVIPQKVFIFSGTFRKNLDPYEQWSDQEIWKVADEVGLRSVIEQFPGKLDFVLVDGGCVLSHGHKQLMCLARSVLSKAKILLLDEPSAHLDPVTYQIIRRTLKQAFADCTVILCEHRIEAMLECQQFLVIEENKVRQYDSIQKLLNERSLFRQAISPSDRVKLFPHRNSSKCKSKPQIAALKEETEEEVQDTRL

Test system in the first data set: not given
Assay: not given
The conditions noted are these: from C=CCCC(C#N)c1nc(-c2nnc(C(O)(c3cccc(I)c3)C(F)(F)F)o2)c(NC(=O)OC(C)(C)C)cc1C(F)(F)F; cc_pd bond; 15-membered ring; Pd(OAc)2/P(o-tol)3/Et3N; MeCN; 9.4 mM; 80.0 °C.
The molecule `CC(C)(C)OC(=O)Nc1cc(C(F)(F)F)c2nc1-c1nnc(o1)C(O)(C(F)(F)F)c1cccc(c1)C=CCCC2C#N` (mixture of isomers) gave a ring closure, isolated yield of 93%.

The same data set, now with this note: from C=CCCC(OC)c1nc(-c2nnc(C(O)(c3cc(I)ccc3F)C(F)(F)F)o2)c(NC(=O)OC(C)(C)C)cc1C(F)(F)F; cc_pd bond; 15-membered ring; Pd(OAc)2/P(o-tol)3/Et3N; MeCN; 6.3 mM; 80.0 °C; 16.0 h.
In turn, `COC1CCC=Cc2ccc(F)c(c2)C(O)(C(F)(F)F)C2=NN=C(O2)c2nc1c(C(F)(F)F)cc2NC(=O)OC(C)(C)C` (mixture of isomers) showed a ring closure, isolated yield of 62%.

Staying with this data set, now noted: from CC(C)(C)OC(=O)Nc1cc(C(F)(F)F)c(C(=O)O)nc1-c1nnc(C(CCCCNC2CC(F)(F)C2)(OCc2ccccc2)C(F)(F)F)o1; amide bond; 13-membered ring; HATU/DIEA; DMF; 2.67 mM; 1.0 h.
Molecule `CC(C)(C)OC(=O)Nc1cc(C(F)(F)F)c2nc1-c1nnc(o1)C(OCc1ccccc1)(C(F)(F)F)CCCCN(C1CC(F)(F)C1)C2=O` (centres unmarked) gave a ring closure, isolated yield of 33%.

The same data set, now with this note: from CC(C)NCCCCC(OCc1ccccc1)(c1nnc(-c2nc(CC(=O)O)c(C(F)(F)F)cc2N)o1)C(F)(F)F; amide bond; 14-membered ring; T3P/DIEA; EtOAc/NMP; 33.9 mM; 2.0 h.
With `CC(C)N1CCCCC(OCc2ccccc2)(C(F)(F)F)C2=NN=C(O2)c2nc(c(C(F)(F)F)cc2N)CC1=O` (centres unmarked), the ring closure, isolated yield was 23%.

Still in this data set, the particulars now being: from CNCCCCC(OCc1ccccc1)(c1nnc(-c2nc(CC(=O)O)c(C(F)(F)F)cc2N)o1)C(F)(F)F; amide bond; 14-membered ring; T3P/DIEA; EtOAc/NMP; 35.7 mM; 5.0 h.
The molecule `CN1CCCCC(OCc2ccccc2)(C(F)(F)F)C2=NN=C(O2)c2nc(c(C(F)(F)F)cc2N)CC1=O` (centres unmarked) yielded a ring closure, isolated yield of 45%.

The data set is the same for the next values; noted with them: from Nc1cc(C(F)(F)F)c(CC(=O)O)nc1-c1nnc(C(CCCCNCc2ccccc2)(OCc2ccccc2)C(F)(F)F)o1; amide bond; 14-membered ring; T3P/DIEA; EtOAc/NMP; 31.5 mM; 2.0 h.
Molecule `Nc1cc(C(F)(F)F)c2nc1-c1nnc(o1)C(OCc1ccccc1)(C(F)(F)F)CCCCN(Cc1ccccc1)C(=O)C2` (centres unmarked) gave a ring closure, isolated yield of 66%.

The next data set concerns the target T1, CFTR in F508del/MF-HBE cells (Homo sapiens, UniProt P13569, DEL508-508).
T1 construct: human bronchial epithelial (HBE) cells derived from CF subjects heterozygous for F508del and a minimal function CFTR mutation; endogenous in cells; host or cells: primary human bronchial epithelial cells from CF subjects (F508del/MF-HBE)
Description: Ussing chamber assay of CFTR-mediated short-circuit currents (identification of potentiator compounds). The format is cell-based. The following applies: potentiator incubated 18-24 hours at 37° C. in combination with 10 μM corrector, in the presence of 20% human serum, CFTR-mediated ISC. A digest of the protocol:
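Short-circuit current was measured in Ussing chambers at 37° C, Vhold 0 mV, 30 μM apical amiloride. CFTR current was defined as the forskolin (20 μM) response relative to the current remaining after BPO/GlyH-101/inhibitor 172 (20 μM each). Before recording, cells had 18-24 h exposure to test potentiators with 10 μM corrector compound in 20% human serum.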
By EC50 is commonly meant the midpoint of the concentration-response curve. `Nc1cc(C(F)(F)F)c2nc1-c1nnc(o1)[C@@](O)(C(F)(F)F)CCCCCN(CC(C1CC1)C1CC1)C2=O` [Compound 251, (6R)-17-amino-12-(2,2-dicyclopropylethyl)-6-hydroxy-6,15-bis(trifluoromethyl)-19-oxa-3,4,12,18-tetrazatricyclo [12.3.1.12,5] nonadeca-1(18),2,4,14,16-pentaen-13-one]: the EC50 is over 1000 nM.
For `Nc1cc(C(F)(F)F)c2nc1-c1nnc(o1)[C@@](O)(C(F)(F)F)CCCCCN(CC1CC13CC3)C2=O` (stereo partly drawn) [Compound 252, (6R)-17-amino-6-hydroxy-12-(spiro[2.2]pentan-2-ylmethyl)-6,15-bis(trifluoromethyl)-19-oxa-3,4,12,18-tetrazatricyclo [12.3.1.12,5] nonadeca-1(18),2,4,14,16-pentaen-13-one], the half-maximal effective concentration (EC50) was under 500 nM.
Turning to `Nc1cc(C(F)(F)F)c2nc1-c1nnc(o1)[C@@](O)(C(F)(F)F)CCCCCN(C1(C3CC3)CC1)C2=O` [Compound 253, (6R)-17-amino-12-(1-cyclopropylcyclo-propyl)-6-hydroxy-6,15-bis(trifluoromethyl)-19-oxa-3,4,12,18-tetrazatricyclo [12.3.1.12,5] nonadeca-1(18),2,4,14,16-pentaen-13-one], the EC50 was under 500 nM.
For `Nc1cc(C(F)(F)F)c2nc1-c1nnc(o1)[C@@](O)(C(F)(F)F)CCCCCN(Cc1cccc(OC(F)F)c1)C2=O` [Compound 254, (6R)-17-amino-12-[[3-(difluoromethoxy)phenyl]methyl]-6-hydroxy-6,15-bis(trifluoromethyl)-19-oxa-3,4,12,18-tetrazatricyclo [12.3.1.12,5] nonadeca-1(18),2,4,14,16-pentaen-13-one], the concentration giving a half-maximal response (EC50) is under 500 nM.
Same read-out and setting: next, `Nc1cc(C(F)(F)F)c2nc1-c1nnc(o1)[C@@](O)(C(F)(F)F)CCCCCN(Cc1ccc(F)c(C3CC3)c1)C2=O` [Compound 255, (6R)-17-amino-12-[(3-cyclopropyl-4-fluoro-phenyl)methyl]-6-hydroxy-6,15-bis(trifluoromethyl)-19-oxa-3,4,12,18-tetrazatricyclo [12.3.1.12,5] nonadeca-1(18),2,4,14,16-pentaen-13-one]: under 500 nM.
On the same count and under the same terms, as for `Nc1cc(C(F)(F)F)c2nc1-c1nnc(o1)[C@@](O)(C(F)(F)F)CCCCCN(Cc1ccc(F)c(C3CCC3)c1)C2=O` [Compound 256, (6R)-17-amino-12-[(3-cyclobutyl-4-fluoro-phenyl)methyl]-6-hydroxy-6,15-bis(trifluoromethyl)-19-oxa-3,4,12,18-tetrazatricyclo [12.3.1.12,5] nonadeca-1(18),2,4,14,16-pentaen-13-one], the figure is under 500 nM; as for `Nc1cc(C(F)(F)F)c2nc1-c1nnc(o1)[C@@](O)(C(F)(F)F)CCCCCN(Cc1cc(F)cc(Cl)c1)C2=O` [Compound 257, (6R)-17-amino-12-[(3-chloro-5-fluoro-phenyl)methyl]-6-hydroxy-6,15-bis(trifluoromethyl)-19-oxa-3,4,12,18-tetrazatricyclo [12.3.1.12,5] nonadeca-1(18),2,4,14,16-pentaen-13-one], under 500 nM; as for `Nc1cc(C(F)(F)F)c2nc1-c1nnc(o1)[C@@](O)(C(F)(F)F)CCCCCN(Cc1cc(F)cc(C(F)(F)F)c1)C2=O` [Compound 258, (6R)-17-amino-12-[[3-fluoro-5-(trifluoromethyl)phenyl]methyl]-6-hydroxy-6,15-bis(trifluoromethyl)-19-oxa-3,4,12,18-tetrazatricyclo [12.3.1.12,5] nonadeca-1(18),2,4,14,16-pentaen-13-one], under 500 nM.
With `Nc1cc(C(F)(F)F)c2nc1-c1nnc(o1)[C@@](O)(C(F)(F)F)CCCCCN(Cc1cc(C3CC3)ccc1F)C2=O` [Compound 259, (6R)-17-amino-12-[(5-cyclopropyl-2-fluoro-phenyl)methyl]-6-hydroxy-6,15-bis(trifluoromethyl)-19-oxa-3,4,12,18-tetrazatricyclo [12.3.1.12,5] nonadeca-1(18),2,4,14,16-pentaen-13-one], the half-maximal effective concentration (EC50) was under 500 nM.
The same measure, in the same setting: as for `Nc1cc(C(F)(F)F)c2nc1-c1nnc(o1)[C@@](O)(C(F)(F)F)CCCCCN(Cc1cc(C3CCC3)ccc1F)C2=O` [Compound 260, (6R)-17-amino-12-[(5-cyclobutyl-2-fluoro-phenyl)methyl]-6-hydroxy-6,15-bis(trifluoromethyl)-19-oxa-3,4,12,18-tetrazatricyclo [12.3.1.12,5] nonadeca-1(18),2,4,14,16-pentaen-13-one], the figure is under 500 nM; as for `Nc1cc(C(F)(F)F)c2nc1-c1nnc(o1)[C@@](O)(C(F)(F)F)CCCCCN(Cc1ccc(OC(F)(F)F)c(F)c1)C2=O` [Compound 265, (6R)-17-amino-12-[[3-fluoro-4-(trifluoromethoxy)phenyl]methyl]-6-hydroxy-6,15-bis(trifluoromethyl)-19-oxa-3,4,12,18-tetrazatricyclo [12.3.1.12,5] nonadeca-1(18),2,4,14,16-pentaen-13-one], under 500 nM; as for `Nc1cc(C(F)(F)F)c2nc1-c1nnc(o1)[C@@](O)(C(F)(F)F)CCCCCN(Cc1ccc(OC(F)F)cc1)C2=O` [Compound 266, (6R)-17-amino-12-[[4-(difluoromethoxy)phenyl]methyl]-6-hydroxy-6,15-bis(trifluoromethyl)-19-oxa-3,4,12,18-tetrazatricyclo [12.3.1.12,5] nonadeca-1(18),2,4,14,16-pentaen-13-one], under 500 nM.
With `Nc1cc(C(F)(F)F)c2nc1-c1nnc(o1)[C@@](O)(C(F)(F)F)CCCCCN(Cc1ccc(OC(F)F)c(F)c1)C2=O` [Compound 267, (6R)-17-amino-12-[[4-(difluoromethoxy)-3-fluoro-phenyl]methyl]-6-hydroxy-6,15-bis(trifluoromethyl)-19-oxa-3,4,12,18-tetrazatricyclo [12.3.1.12,5] nonadeca-1(18),2,4,14,16-pentaen-13-one], the EC50 was under 500 nM.
The same measure, in the same setting: as for `Nc1cc(C(F)(F)F)c2nc1-c1nnc(o1)[C@@](O)(C(F)(F)F)CCCCCN(Cc1ccc(OC(F)F)nc1)C2=O` [Compound 268, (6R)-17-amino-12-[[6-(difluoromethoxy)-3-pyridyl]methyl]-6-hydroxy-6,15-bis(trifluoromethyl)-19-oxa-3,4,12,18-tetrazatricyclo [12.3.1.12,5] nonadeca-1(18),2,4,14,16-pentaen-13-one], the figure is under 500 nM; as for `Nc1cc(C(F)(F)F)c2nc1-c1nnc(o1)[C@@](O)(C(F)(F)F)CCCCCN(Cc1ccnc(OC(F)F)c1)C2=O` [Compound 269, (6R)-17-amino-12-[[2-(difluoromethoxy)-4-pyridyl]methyl]-6-hydroxy-6,15-bis(trifluoromethyl)-19-oxa-3,4,12,18-tetrazatricyclo [12.3.1.12,5] nonadeca-1(18),2,4,14,16-pentaen-13-one], over 1000 nM.
Still for that read-out and setting: as for `Nc1cc(C(F)(F)F)c2nc1-c1nnc(o1)[C@@](O)(C(F)(F)F)CCCCCN(Cc1ccnc(OC3CCC3)c1)C2=O` [Compound 270, (6R)-17-amino-12-[[2-(cyclobutoxy)-4-pyridyl]methyl]-6-hydroxy-6,15-bis(trifluoromethyl)-19-oxa-3,4,12,18-tetrazatricyclo [12.3.1.12,5] nonadeca-1(18),2,4,14,16-pentaen-13-one], the figure is under 500 nM; as for `N#Cc1cccc(CN2CCCCC[C@](O)(C(F)(F)F)C3=NN=C(O3)c3nc(c(C(F)(F)F)cc3N)C2=O)c1` [Compound 271, 3-[[(6R)-17-amino-6-hydroxy-13-oxo-6,15-bis(trifluoromethyl)-19-oxa-3,4,12,18-tetrazatricyclo[12.3.1.12,5]nonadeca-1(18),2,4,14,16-pentaen-12-yl]methyl]benzonitrile], under 500 nM.
